Reference: ChEMBL document CHEMBL1150838, “Cytotoxic constituents of the fruits of Cananga odorata” (J Nat Prod, 2001)
In brackets after ≈: the same amount, converted by molar mass.

Key:
HepG2 = assay: Cytotoxicity against human HepG2 cells by MTT assay; format: functional, cell-based
[1] = Cytotoxicity against human HepG2(2.2.15) cells by MTT assay; format: functional, cell-based

Row | Structure (SMILES) | IC50 (HepG2) [µg/mL] | IC50 [1] [µg/mL]
1 | C[C@@H]1O[C@@H](OC(C)(C)[C@@H]2CC[C@@]3(C)CCC[C@@](C)(O)[C@@H]3C2)[C@H](O)[C@H](O)[C@H]1O | 0.01 (≈ 0.0259 µM) | 0.36 (≈ 0.931 µM)
2 | CC1=C2C[C@H](C(C)(C)O[C@@H]3O[C@@H](C)[C@H](O)[C@@H](O)[C@H]3O)CC[C@@]2(C)CCC1 | 3.9 (≈ 10.6 µM) | 10.6 (≈ 28.8 µM)
3 | CC1=C2C[C@H](C(C)(C)O)CC[C@@]2(C)CCC1 | 1.5 (≈ 6.75 µM) | 0.01 (≈ 0.045 µM)
4 | Cc1ccc2c(n1)C[C@H](C(C)(C)O)CC[C@H]2C [CANANODINE] | 0.22 (≈ 0.943 µM) | 3.8 (≈ 16.3 µM)
5 | Cc1ccnc2c1C(=O)c1ccccc1C2=O [CLEISTOPHOLINE] | 0.22 (≈ 0.986 µM) | 0.54 (≈ 2.42 µM)
6 | COc1cc(/C=C/C(=O)NCCc2ccc(O)cc2)ccc1O [N-TRANS-FERULOYL TYRAMINE] | 6.6 (≈ 21.1 µM) | 1.9 (≈ 6.06 µM)
